| Compound | melting point [°C] |
| --- | --- |
| CCOc1cc(C(CC#N)N2C(=O)c3ccc4ccccc4c3C2=O)ccc1OC (centres unmarked) [Example 1, 3-(1,3-Dioxobenzo[e]isoindolin-2-yl)-3-(3-ethoxy-4-methoxyphenyl)propanenitrile] | 163 to 165 |
| CCOc1cc([C@@H](CS(C)(=O)=O)N2C(=O)c3cccc(NC(=O)c4ccco4)c3C2=O)ccc1OC [Example 2, (1S)-Furan-2-carboxylic Acid {2-[1-(3-ethoxy-4-methoxyphenyl)-2-methanesulfonyl-ethyl]-1,3-dioxo-2,3-dihydro-1H-isoindol-4-yl}-amide] | 184 to 186 |
| CCOc1cc([C@@H](CS(C)(=O)=O)N2C(=O)c3cccc(NC(=O)COC)c3C2=O)ccc1OC [Example 3, (1S)—N-{2-[1-(3-ethoxy-4-methoxyphenyl)-2-methanesulfonyl-ethyl]-1,3-dioxo-2,3-dihydro-1H-isoindol-4-yl}-2-methoxy-acetamide] | 151 to 153 |
| CCOc1cc([C@@H](CS(C)(=O)=O)N2Cc3cccc(NCC4CC4)c3C2=O)ccc1OC [Example 4, (1S)-7-(Cyclopropylmethyl-amino)-2-[1-(3-ethoxy-4-methoxyphenyl)-2-methanesulfonyl-ethyl]-2,3-dihydro-isoindol-1-one] | 147 to 149 |
| CCOc1cc([C@@H](CS(C)(=O)=O)N2Cc3cccc(NCC(C)C)c3C2=O)ccc1OC [Example 5, (1S)-2-[1-(3-Ethoxy-4-methoxyphenyl)-2-methanesulfonyl-ethyl]-7-isobutylamino-2,3-dihydro-isoindol-1-one] | 122 to 124 |
| CCOc1cc([C@@H](CC(=O)N(C)C)N2Cc3cccc(NCC(C)(C)C)c3C2=O)ccc1OC [Example 6, (3R)-3-[7-(2,2-Dimethyl-propylamino)-1-oxo-1,3-dihydro-isoindol-2-yl]-3-(3-ethoxy-4-methoxyphenyl)-N,N-dimethyl-propionamide] | 111 to 113 |
| CCOc1cc(C(CC#N)N2C(=O)c3ccc(NC(N)=O)cc3C2=O)ccc1OC (centres unmarked) [Example 11] | 163 to 165 |

Further lines, results first:

| melting point [°C] | Compound |
| --- | --- |
| 179 to 181.5 | CCOc1cc(C(CC#N)N2C(=O)c3cccc(NC(N)=O)c3C2=O)ccc1OC (centres unmarked) [Example 12] |
| 102 to 104 | COc1ccc(C(CS(C)(=O)=O)N2C(=O)c3cccc(NC(C)=O)c3C2=O)cc1OCC1CC1 (centres unmarked) [Example 13, N-{2-[1-(3-Cyclopropylmethoxy-4-methoxy-phenyl)-2-methanesulfonyl-ethyl]-1,3-dioxo-2,3-dihydro-1H-isoindol-4-yl}-acetamide] |
| 105 to 107 | CCOc1cc([C@@H](CC(=O)N(C)C)N2Cc3cccc(NC(=O)N(C)C)c3C2=O)ccc1OC [Example 15, (3R)-3-(7-(3,3-Dimethyl-ureido)-1-oxo-1,3-dihydro-isoindol-2-yl}-3-(3-ethoxy-4-methoxy-phenyl)-N,N-dimethyl-propionamide] |
| 170 to 172 | CCOc1cc([C@@H](CS(C)(=O)=O)N2Cc3cccc(NC(=O)N(C)C)c3C2=O)ccc1OC [Example 16, (1S)-3-{2-[1-(3-Ethoxy-4-methoxy-phenyl)-2-methanesulfonyl-ethyl]-3-oxo-2,3-dihydro-1H-isoindol-4-yl}-1,1-dimethyl-urea] |
